Reference: ChEMBL document CHEMBL1137936, “Optimization of the indolyl quinolinone class of KDR (VEGFR-2) kinase inhibitors: effects of 5-amido- and 5-sulphonamido-indolyl groups on pharmacokinetics and hERG binding” (Bioorg Med Chem Lett, 2004)

Columns and labels:
[1] = Cmax in dog after administration of 1 mg/kg iv; assay type: ADME, organism-based, Canis lupus familiaris; parameters: dose 1 mg/kg, route intravenous; conditions: in vivo
[2] = Oral bioavailability in rat (dose 10 mg/kg p.o.); assay type: ADME, organism-based; conditions: in vivo
[3] = Oral bioavailability in monkey (dose 1 mg/kg p.o.); assay type: ADME, organism-based; conditions: cercopithecidae, in vivo
[4] = Half life in monkey plasma after administration of 1 mg/kg iv; assay type: ADME, organism-based; parameters: dose 1 mg/kg, route intravenous; conditions: cercopithecidae
[5] = Volume distribution in dog after administration of 1 mg/kg iv; assay type: ADME, organism-based, Canis lupus familiaris; parameters: dose 1 mg/kg, route intravenous; conditions: in vivo, read-out: Vss
[6] = Cmax in rat after administration of 2 mg/kg iv; assay type: ADME, organism-based; parameters: dose 2 mg/kg, route intravenous; conditions: in vivo
[7] = Partition coefficient (logP); assay type: physicochemical; conditions: octanol/water
[8] = Half life in dog plasma after administration of 1 mg/kg iv; assay type: ADME, organism-based, Canis lupus familiaris; parameters: dose 1 mg/kg, route intravenous
[9] = Half life in dog plasma; assay type: ADME, organism-based, Canis lupus familiaris
[10] = Volume distribution in rat after administration of 2 mg/kg iv; assay type: ADME, organism-based; parameters: dose 2 mg/kg, route intravenous; conditions: in vivo, read-out: Vss
[11] = Plasma clearance in dogs; assay type: ADME, organism-based, Canis lupus familiaris; conditions: dog
[12] = Cmax in monkey after administration of 1 mg/kg iv; assay type: ADME, organism-based; parameters: dose 1 mg/kg, route intravenous; conditions: cercopithecidae, in vivo
[13] = Plasma clearance in dog after administration of 1 mg/kg iv; assay type: ADME, organism-based, Canis lupus familiaris; parameters: dose 1 mg/kg, route intravenous
[14] = Compound was tested for the inhibition of VEGF-stimulated mitogenesis as determined in human umbilical vein endothelial cells; assay type: functional, cell-based; conditions: endothelial cell
[15] = Volume distribution in monkey after administration of 1 mg/kg iv; assay type: ADME, organism-based; parameters: dose 1 mg/kg, route intravenous; conditions: cercopithecidae, in vivo, read-out: Vss
[16] = Oral bioavailability in dog (dose 1 mg/kg p.o.); assay type: ADME, organism-based, Canis lupus familiaris; conditions: in vivo
[17] = biological target: Vascular endothelial growth factor receptor 2 (Homo sapiens, UniProt P35968); assay: Inhibition of VEGF receptor 2 mediated phosphorylation of poly-Glu/Tyr (4:1)
Sequence of Vascular endothelial growth factor receptor 2 (P35968 whole entry): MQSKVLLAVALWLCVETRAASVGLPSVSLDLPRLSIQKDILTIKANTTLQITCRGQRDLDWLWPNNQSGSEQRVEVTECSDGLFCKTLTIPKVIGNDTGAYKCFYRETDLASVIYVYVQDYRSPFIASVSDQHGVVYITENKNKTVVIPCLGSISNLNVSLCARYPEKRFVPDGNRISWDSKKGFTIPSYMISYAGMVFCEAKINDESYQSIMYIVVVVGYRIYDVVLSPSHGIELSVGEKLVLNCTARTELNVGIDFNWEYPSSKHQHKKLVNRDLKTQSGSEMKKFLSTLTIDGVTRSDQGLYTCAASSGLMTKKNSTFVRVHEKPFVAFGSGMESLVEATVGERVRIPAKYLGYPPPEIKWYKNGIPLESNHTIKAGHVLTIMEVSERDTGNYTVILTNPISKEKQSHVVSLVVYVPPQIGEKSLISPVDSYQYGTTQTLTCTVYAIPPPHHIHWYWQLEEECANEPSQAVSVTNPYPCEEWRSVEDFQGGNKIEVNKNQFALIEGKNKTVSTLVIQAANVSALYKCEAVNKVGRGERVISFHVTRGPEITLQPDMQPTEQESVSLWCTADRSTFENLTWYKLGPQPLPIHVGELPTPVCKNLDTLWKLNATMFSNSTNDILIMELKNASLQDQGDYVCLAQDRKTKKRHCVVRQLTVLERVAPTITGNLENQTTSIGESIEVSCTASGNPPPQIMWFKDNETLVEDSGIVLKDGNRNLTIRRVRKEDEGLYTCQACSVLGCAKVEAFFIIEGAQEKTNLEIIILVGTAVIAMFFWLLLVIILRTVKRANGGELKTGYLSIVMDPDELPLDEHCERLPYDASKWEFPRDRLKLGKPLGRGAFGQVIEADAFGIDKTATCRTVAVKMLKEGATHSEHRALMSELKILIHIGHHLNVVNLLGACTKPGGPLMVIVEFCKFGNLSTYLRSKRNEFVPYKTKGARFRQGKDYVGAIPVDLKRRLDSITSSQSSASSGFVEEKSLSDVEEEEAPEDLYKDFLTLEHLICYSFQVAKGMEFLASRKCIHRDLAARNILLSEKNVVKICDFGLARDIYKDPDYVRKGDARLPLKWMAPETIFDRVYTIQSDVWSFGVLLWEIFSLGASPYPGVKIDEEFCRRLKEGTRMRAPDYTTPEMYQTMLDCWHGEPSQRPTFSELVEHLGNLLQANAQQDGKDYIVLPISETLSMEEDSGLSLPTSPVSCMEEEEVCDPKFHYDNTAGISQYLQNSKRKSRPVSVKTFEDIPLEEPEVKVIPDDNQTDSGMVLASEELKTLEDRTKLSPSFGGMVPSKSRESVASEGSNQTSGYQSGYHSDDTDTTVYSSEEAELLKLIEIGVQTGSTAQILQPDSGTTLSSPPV

[18] = Half life in rat plasma after administration of 2 mg/kg iv; assay type: ADME, organism-based; parameters: dose 2 mg/kg, route intravenous
[19] = biological target: T1, Voltage-gated inwardly rectifying potassium channel KCNH2 (Homo sapiens, UniProt Q12809); assay: Affinity for HERG voltage-gated potassium channel subunit Kv11.1
T1 sequence (Q12809 whole entry): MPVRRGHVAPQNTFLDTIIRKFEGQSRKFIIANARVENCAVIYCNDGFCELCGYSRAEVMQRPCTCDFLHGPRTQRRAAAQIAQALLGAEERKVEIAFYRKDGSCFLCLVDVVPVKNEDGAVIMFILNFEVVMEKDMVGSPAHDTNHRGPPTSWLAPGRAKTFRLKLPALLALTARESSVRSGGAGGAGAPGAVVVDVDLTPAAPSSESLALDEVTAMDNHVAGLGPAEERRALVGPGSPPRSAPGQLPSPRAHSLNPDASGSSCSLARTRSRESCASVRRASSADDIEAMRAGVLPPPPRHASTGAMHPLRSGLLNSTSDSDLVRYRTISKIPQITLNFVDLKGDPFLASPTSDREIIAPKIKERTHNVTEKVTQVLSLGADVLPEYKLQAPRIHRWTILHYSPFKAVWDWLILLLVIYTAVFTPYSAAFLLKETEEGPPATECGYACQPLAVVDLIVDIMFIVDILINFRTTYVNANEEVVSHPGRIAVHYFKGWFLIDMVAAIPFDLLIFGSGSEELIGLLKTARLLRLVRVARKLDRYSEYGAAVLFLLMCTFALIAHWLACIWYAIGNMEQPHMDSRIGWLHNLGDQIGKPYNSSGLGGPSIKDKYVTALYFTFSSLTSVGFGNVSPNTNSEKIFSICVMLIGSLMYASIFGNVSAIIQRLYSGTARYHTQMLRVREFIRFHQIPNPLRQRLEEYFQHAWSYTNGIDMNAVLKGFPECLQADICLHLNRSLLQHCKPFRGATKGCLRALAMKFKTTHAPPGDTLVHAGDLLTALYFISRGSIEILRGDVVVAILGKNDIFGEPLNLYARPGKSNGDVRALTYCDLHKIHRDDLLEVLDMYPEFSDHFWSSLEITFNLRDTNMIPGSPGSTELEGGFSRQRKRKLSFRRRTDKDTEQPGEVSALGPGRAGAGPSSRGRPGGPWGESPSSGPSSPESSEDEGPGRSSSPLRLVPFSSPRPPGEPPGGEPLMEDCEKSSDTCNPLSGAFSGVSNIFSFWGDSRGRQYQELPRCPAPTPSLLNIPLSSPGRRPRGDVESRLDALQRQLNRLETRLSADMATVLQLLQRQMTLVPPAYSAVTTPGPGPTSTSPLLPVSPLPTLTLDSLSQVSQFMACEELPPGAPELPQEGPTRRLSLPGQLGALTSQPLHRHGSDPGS

[20] = Plasma clearance in rat after administration of 2 mg/kg iv; assay type: ADME, organism-based; parameters: dose 2 mg/kg, route intravenous
[21] = Plasma clearance in monkey after administration of 1 mg/kg iv; assay type: ADME, organism-based; parameters: dose 1 mg/kg, route intravenous; conditions: cercopithecidae
[22] = biological target: T1, Voltage-gated inwardly rectifying potassium channel KCNH2; assay: Effect on prolongation of the heart rate-corrected QT interval; assay type: functional
[23] = Plasma clearance in dog after administration of 0.25 mg/kg iv; assay type: ADME, organism-based, Canis lupus familiaris; parameters: dose 0.25 mg/kg, route intravenous
[24] = Oral bioavailability in rat after administration of 10 mg/kg po; assay type: ADME, organism-based; conditions: in vivo
[25] = Half life in dog plasma after administration of 0.25 mg/kg iv; assay type: ADME, organism-based, Canis lupus familiaris; parameters: dose 0.25 mg/kg, route intravenous

| SMILES | logP [7] | half-life [9] [h] | clearance [11] [mL/min/kg] | IC50 [14] [nM] | IC50 [17] [nM] | IP [19] [nM] | further results |
| --- | --- | --- | --- | --- | --- | --- | --- |
| CN1CCN(C(=O)c2ccc3[nH]c(-c4cc5ccccc5nc4O)cc3c2)CC1 | 2.6 | 2.4 | 19 | 4 | 5 | 10800 | Cmax [1]: 160 nM; bioavailability [2]: 31%; bioavailability [3]: 46%; half-life [4]: 2.8 h; Vd [5]: 2.9 L/kg; Cmax [6]: 5790 nM; half-life [8]: 2.4 h; Vd [10]: 0.7 L/kg; Cmax [12]: 1250 nM; clearance [13]: 19 mL/min/kg; Vd [15]: 0.9 L/kg; bioavailability [16]: 15%; half-life [18]: 2.3 h; clearance [20]: 3.8 mL/min/kg; clearance [21]: 3.4 mL/min/kg |
| CC(=O)N1CCN(CCOc2ccc3[nH]c(-c4cc5ccccc5nc4O)cc3c2)CC1 | 3.2 | 2.2 | 7.8 | 4 | 4 | 520 |  |
| O=C(O)C1CCN(CCCOc2ccc3[nH]c(-c4cc5ccccc5nc4O)cc3c2)CC1 | 0.9 | 3.2 | 7.7 | 41 | 8 | 3050 | EC10 [22]: 5200 nM |
| COCCN(C)CCOc1ccc2[nH]c(-c3cc4ccccc4nc3O)cc2c1 | 3.1 | < 1 | > 50 | 8 | 7 | 1950 | Cmax [6]: 470 nM; Vd [10]: 5 L/kg; clearance [23]: > 50 mL/min/kg; bioavailability [24]: 20%; half-life [18]: 1.4 h; clearance [20]: 56 mL/min/kg; EC10 [22]: 1900 nM; half-life [25]: < 1 h |
| CN1CCN(S(=O)(=O)c2ccc3[nH]c(-c4cc5ccccc5nc4O)cc3c2)CC1 | 3 | 6.4 | 0.5 | 31 | 10 | 3440 | Cmax [1]: 5200 nM; bioavailability [2]: 54%; bioavailability [3]: 40%; half-life [4]: 3.4 h; Vd [5]: 0.3 L/kg; Cmax [6]: 4800 nM; half-life [8]: 6.4 h; Vd [10]: 0.9 L/kg; Cmax [12]: 630 nM; clearance [13]: 0.5 mL/min/kg; Vd [15]: 2.1 L/kg; bioavailability [16]: 63%; half-life [18]: 1.1 h; clearance [20]: 29 mL/min/kg; clearance [21]: 12 mL/min/kg |
| Oc1nc2ccccc2cc1-c1cc2cc(OCCN3CCCCC3)ccc2[nH]1 | 3.7 | 1.3 | > 50 | 17 | 4 | 980 | EC10 [22]: 640 nM |

More lines, main results first:

| logP [7] | half-life [9] [h] | clearance [11] [mL/min/kg] | IC50 [14] [nM] | IC50 [17] [nM] | SMILES | IP [19] [nM] | further results |
| --- | --- | --- | --- | --- | --- | --- | --- |
|  | 1.7 | 38 | 53 | 6 | O=C(NC1CCNC1)c1ccc2[nH]c(-c3cc4ccccc4nc3O)cc2c1 (stereo not given) | 13700 |  |
| 1.7 | 4.2 | 27 | 4 | 5 | O=C(c1ccc2[nH]c(-c3cc4ccccc4nc3O)cc2c1)N1CCNCC1 | > 10000 |  |
|  | 1.1 | 26 | 4 | 5 | NC1CCN(C(=O)c2ccc3[nH]c(-c4cc5ccccc5nc4O)cc3c2)C1 (stereo not given) | > 10000 |  |
|  |  |  | 184 |  | O=c1[nH]c2ccccc2cc1-c1cc2ccccc2[nH]1 |  |  |
|  | 9.5 | 0.4 | 97 | 14 | O=c1[nH]c2ccccc2cc1-c1cc2cc(S(=O)(=O)NC3CCNC3)ccc2[nH]1 (stereo not given) | 2835 |  |
| 2.3 | 12.7 | 3.5 | 30 | 11 | O=c1[nH]c2ccccc2cc1-c1cc2cc(S(=O)(=O)N3CCNCC3)ccc2[nH]1 | 2450 |  |
|  | 3.4 | 11 | 27 | 16 | NC1CCN(S(=O)(=O)c2ccc3[nH]c(-c4cc5ccccc5nc4O)cc3c2)C1 (stereo not given) | 2650 |  |
|  |  |  | 1140 |  | O=c1[nH]c2ccccc2cc1-c1nc2ccccc2[nH]1 |  |  |
